The record followed here is patent US9695155B2, “Herbicidal substituted pyrimidinyloxy benzene compounds” (E. I. DU PONT DE NEMOURS AND COMPANY, priority 2013, dated 2017).

Where two headings read alike, the source gives them in different places.

The subject of assay [1] is barnyardgrass. The assay is described as follows: Test A preemergence. Type of assay: in vivo, Echinochloa crus-galli. The conditions noted are these: for pest or weed control at 125 g/ha / pest or weed control at 500 g/ha: Echinochloa crus-galli, pre-emergence, 240 h. The procedure, abridged: (§1)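 Scoring: eye-based comparison with untreated controls, 0 for no effect through 100 for complete control, at about day 10. Treatments: directed soil spray preemergence; foliar spray postemergence on 2–10 cm plants at the one- to two-leaf stage. Medium: loam soil with sand.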

The subject of another assay is morningglory. The assay is described as follows: Test A postemergence. Type of assay: in vivo, Ipomoea spp. Particulars: for pest or weed control at 125 g/ha / pest or weed control at 500 g/ha: Ipomoea, post-emergence, 240 h; for pest or weed control at 125 g/ha: read-out: Plant response rating, Morningglory; for pest or weed control at 500 g/ha: read-out: Plant response rating Morningglory. An outline of the steps:
as §1

Another assay concerns wheat. In words: Test A postemergence. Particulars: for plant injury at 125 g/ha / plant injury at 500 g/ha: Triticum aestivum, post-emergence, 240 h; for plant injury at 125 g/ha: read-out: Plant response rating, Wheat; for plant injury at 500 g/ha: read-out: Plant response rating Wheat. Type of assay: in vivo, Triticum aestivum. An outline of the steps: as §1
The next assay relates to rice. The assay is described as follows: Test B flooded paddy test. Type of assay: in vivo, Oryza sativa. The conditions noted are these: Flood, 250 g ai/ha, 0 to 100 scale where 0 is no effect and 100 is complete control; for plant injury at 250 g/ha: Oryza sativa, read-out: Plant response rating, Rice. An outline of the steps:
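Post-emergence paddy-water application at the 2-leaf stage, with 3 cm flood kept for the whole test. Response was judged visually relative to controls after 13 to 15 greenhouse days, 0 indicating no effect and 100 complete control.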

For a further assay, the system named is blackgrass. The assay is described as follows: Test C preemergence. Type of assay: in vivo, Alopecurus myosuroides. The text has this:
(§2) Seeds of plant species selected from blackgrass (Alopecurus myosuroides), Italian ryegrass (Lolium multiflorum), wheat, winter (winter wheat, Triticum aestivum), galium (catchweed bedstraw, Galium aparine), corn (Zea mays), large (Lg) crabgrass (Digitaria sanguinalis), giant foxtail (Setaria faberii), johnsongrass (Sorghum halepense), lambsquarters (Chenopodium album), morningglory (Ipomoea coccinea), yellow nutsedge (Cyperus esculentus), pigweed (Amaranthus retroflexus), ragweed (common ragweed, Ambrosia elatior), soybean (Glycine max), barnyardgrass (Echinochloa crus-galli), oilseed rape (Brassica napus), waterhemp (common waterhemp, Amaranthus rudis), kochia (Kochia scoparia), wild oat (Avena fatua), surinam grass (Brachiaria decumbens), foxtail, green (green foxtail, Setaria viridis), goosegrass (Eleusine indica), bromegrass, downy (downy bromegrass, Bromus tectorum), nightshade (eastern black nightshade, Solanum ptycanthum), cocklebur (common cocklebur, Xanthium strumarium), cupgrass, woolly (woolly cupgrass, Eriochloa villosa), bermudagrass (Cynodon dactylon), sunflower, (common oilseed sunflower, Helianthus annuus), Russian thistle (Salsola kali), and velvetleaf (Abutilon theophrasti) were planted into a blend of loam soil and sand and treated preemergence with test chemicals formulated in a non-phytotoxic solvent mixture which included a surfactant.
(§3) At the same time, plants selected from these crop and weed species and also barley, winter (winter barley, Hordeum vulgare), windgrass (Apera spica-venti), chickweed (common chickweed, Stellaria media), deadnettle (henbit deadnettle, Lamium amplexicaule), and canarygrass (littleseed canarygrass, Phalaris minor) were planted in pots containing Redi-Earth® planting medium (Scotts Company, 14111 Scottslawn Road, Marysville, Ohio 43041) comprising spaghnum peat moss, vermiculite, wetting agent and starter nutrients and treated with postemergence applications of test chemicals formulated in the same manner. Plants ranged in height from 2 to 18 cm (1- to 4-leaf stage) for postemergence treatments. Treated plants and controls were maintained in a greenhouse for 13 to 15 days, after which time all species were compared to controls and visually evaluated. Plant response ratings, summarized in Table C, are based on a scale of 0 to 100 where 0 is no effect and 100 is complete control. A dash (-) response means no test result.

Another assay has as its system wheat, winter. The assay is described as follows: Test C preemergence. Type of assay: in vivo, Triticum aestivum.
Text: as §2, §3

The subject of a further assay is large (Lg) crabgrass. In words: Test C preemergence. Type of assay: in vivo, Digitaria sanguinalis.
Text: as §2, §3

Another assay relates to soybean. In words: Test C preemergence. Type of assay: in vivo, Glycine max.
Text: as §2, §3

The test system of assay [2] is barnyardgrass. The assay is described as follows: Test C preemergence. The conditions noted are these: for Barnyardgrass plant response rating: preemergence. Type of assay: in vivo, Echinochloa crus-galli.
Text: as §2, §3

The mark [3] stands for this setting: 500 g ai/ha, 0 to 100 scale, 0 no effect, 100 complete control, approx. 10 days, read-out: Barnyardgrass plant response rating.
The mark [4] stands for this setting: 125 g ai/ha, 0 to 100 scale where 0 is no effect and 100 is complete control.
Where [5] appears, read: 500 g ai/ha, 0 to 100 scale, 0 no effect, 100 complete control.
The mark [6] stands for this setting: 16 g ai/ha, preemergence, scale 0 to 100 (0 no effect, 100 complete control).
The mark [7] stands for this setting: 62 g ai/ha, preemergence, scale 0 (no effect) to 100 (complete control).
Where [8] appears, read: 125 g ai/ha, preemergence, scale 0 (no effect) to 100 (complete control).
The mark [9] stands for this setting: Preemergence, 31 g ai/ha, scale 0 to 100, 0 no effect, 100 complete control.

Regarding `FC(F)(F)c1ccn(-c2ccccc2Oc2ncc(Cl)cn2)n1` [Compound 2, 5-chloro-2-[2-[3-(trifluoromethyl)-1H-pyrazol-1-yl]phenoxy]pyrimidine], the pest or weed control at 125 g/ha in the assay on barnyardgrass [1] (125 g ai/ha, 0 to 100 scale where 0 is no effect and 100 is complete control, read-out: Barnyardgrass plant response rating) worked out at 30%; in the assay with morningglory (setting [4]), 30%. The values for the pest or weed control at 500 g/ha with barnyardgrass [1] (setting [3]) and with morningglory (setting [5]) were 90% and 70%, respectively. The plant injury at 125 g/ha with wheat (setting [4]) stood at 0%. Moreover, the plant injury at 500 g/ha in the assay on wheat (setting [5]) was 0%. The plant injury at 250 g/ha with rice came to 0%.

Turning to `Clc1cnc(Oc2ccccc2-n2cc(Cl)cn2)nc1` [Compound 3], the “Barnyardgrass plant response rating” value in the assay with barnyardgrass [1] (setting [4]) is recorded as 60; with barnyardgrass [1] (500 g ai/ha, 0 to 100 scale, 0 no effect, 100 complete control, approx. 10 days), 100. For the same molecule, the “Plant response rating, Morningglory” value with morningglory (setting [4]) amounted to 10; in the assay on morningglory (setting [5]), 70. Further, the “Plant response rating, Wheat” value with wheat (setting [4]) and in the assay on wheat (setting [5]) was 0 in each case. In addition, the “Plant response rating, Rice” value in the assay with rice is 0.

With `FC(F)(F)c1cnn(-c2ccccc2Oc2ncc(Br)cn2)c1` [Compound 18, 5-bromo-2-[2-[4-(trifluoromethyl)-1H-pyrazol-1-yl]phenoxy]pyrimidine], the pest or weed control at 125 g/ha with barnyardgrass [1] (125 g ai/ha, 0 to 100 scale where 0 is no effect and 100 is complete control, read-out: Plant response rating, Barnyardgrass) came out at 90%; in the assay with morningglory (setting [4]), 60%; in the assay on blackgrass (Alopecurus myosuroides, pre-emergence, 125 g ai/ha, preemergence, scale 0 (no effect) to 100 (complete control), read-out: Blackgrass plant response rating), 90%; in the assay with large (Lg) crabgrass (Digitaria sanguinalis, pre-emergence, 125 g ai/ha, preemergence, scale 0 (no effect) to 100 (complete control), read-out: Crabgrass, Large plant response rating), 100%. Besides, the pest or weed control at 500 g/ha with barnyardgrass [1] (setting [3]) and in the assay with morningglory (setting [5]) was 100% each time. Further, the plant injury at 125 g/ha amounted to 50% with wheat (setting [4]); 35% in the assay with wheat, winter (Triticum aestivum, pre-emergence, 125 g ai/ha, preemergence, scale 0 (no effect) to 100 (complete control), read-out: Wheat plant response rating); 85% with soybean (Glycine max, pre-emergence, 125 g ai/ha, preemergence, scale 0 (no effect) to 100 (complete control), read-out: Soybean plant response rating). For the same molecule, in the assay on wheat (setting [5]), the plant injury at 500 g/ha came to 50%. In addition, the plant injury at 250 g/ha in the assay with rice came to 0%; with wheat, winter (Triticum aestivum, pre-emergence, 250 g ai/ha, preemergence, scale 0 (no effect) to 100 (complete control), read-out: Wheat plant response rating) it was 35%; with soybean (Glycine max, pre-emergence, 250 g ai/ha, preemergence, scale 0 (no effect) to 100 (complete control), read-out: Soybean plant response rating), 85%. Besides, the pest or weed control at 62 g/ha came to 80% with blackgrass (Alopecurus myosuroides, pre-emergence, 62 g ai/ha, preemergence, scale 0 (no effect) to 100 (complete control), read-out: Blackgrass plant response rating) and 100% with large (Lg) crabgrass (Digitaria sanguinalis, pre-emergence, 62 g ai/ha, preemergence, scale 0 (no effect) to 100 (complete control), read-out: Crabgrass, Large plant response rating). Besides, the pest or weed control at 250 g/ha was found to be 90% in the assay on blackgrass (Alopecurus myosuroides, pre-emergence, 250 g ai/ha, preemergence, scale 0 (no effect) to 100 (complete control), read-out: Blackgrass plant response rating) and 100% in the assay on large (Lg) crabgrass (Digitaria sanguinalis, pre-emergence, 250 g ai/ha, preemergence, scale 0 (no effect) to 100 (complete control), read-out: Crabgrass, Large plant response rating). Further, the pest or weed control at 31 g/ha in the assay on blackgrass (Alopecurus myosuroides, pre-emergence, Preemergence, 31 g ai/ha, scale 0 to 100, 0 no effect, 100 complete control, read-out: Plant response rating, Blackgrass) was found to be 10%; in the assay on large (Lg) crabgrass (Digitaria sanguinalis, pre-emergence, Preemergence, 31 g ai/ha, scale 0 to 100, 0 no effect, 100 complete control, read-out: Plant response rating, Crabgrass, Large), 75%. Besides, the plant injury at 62 g/ha with wheat, winter (Triticum aestivum, pre-emergence, 62 g ai/ha, preemergence, scale 0 (no effect) to 100 (complete control), read-out: Wheat plant response rating) came out at 5%; with soybean (Glycine max, pre-emergence, 62 g ai/ha, preemergence, scale 0 (no effect) to 100 (complete control), read-out: Soybean plant response rating) it was 65%. Further, the plant injury at 31 g/ha is 0% in the assay with wheat, winter (Triticum aestivum, pre-emergence, Preemergence, 31 g ai/ha, scale 0 to 100, 0 no effect, 100 complete control, read-out: Plant response rating, Wheat) and 25% in the assay on soybean (Glycine max, pre-emergence, Preemergence, 31 g ai/ha, scale 0 to 100, 0 no effect, 100 complete control, read-out: Plant response rating, Soybean).

Take `FCc1cccc(Oc2ncc(F)cn2)c1-n1cc(C(F)(F)F)cn1` [Compound 118]: the “Barnyardgrass plant response rating (0 to 100 scale)” value in the assay with barnyardgrass [1] (31 g ai/ha) was 50. Besides, the “Plant response rating, Barnyardgrass” value in the assay with barnyardgrass [1] (setting [4]) stood at 100; in the assay with barnyardgrass [2] (setting [9]), 80. Besides, the “Plant response rating, Wheat” value in the assay with wheat (31 g ai/ha, 0 to 100 scale, 0 no effect, 100 complete control) stood at 20; in the assay with wheat, winter (setting [9]), 0. In the assay with rice, the “Plant response rating, Rice” value worked out at 60. Also, the results for the “Blackgrass plant response rating” value with blackgrass (setting [6]), with blackgrass (setting [7]) and in the assay on blackgrass (setting [8]) were 35, 90 and 95, respectively. In addition, the “Plant response rating, Blackgrass” value in the assay on blackgrass (setting [9]) is 80. The “Wheat plant response rating” value with wheat, winter (setting [6]) turned out to be 0; with wheat, winter (setting [7]), 10; in the assay on wheat, winter (setting [8]), 90. Besides, the “Crabgrass, Large plant response rating” value in the assay with large (Lg) crabgrass (setting [6]) was found to be 30; in the assay on large (Lg) crabgrass (setting [7]) it was 85; in the assay on large (Lg) crabgrass (setting [8]), 100. The “Plant response rating, Crabgrass, Large” value in the assay with large (Lg) crabgrass (setting [9]) is given as 80. The results for the “Soybean plant response rating” value with soybean (setting [6]), in the assay on soybean (setting [7]) and in the assay on soybean (setting [8]) were 60, 90 and 95, respectively. In addition, the “Plant response rating, Soybean” value with soybean (setting [9]) amounted to 75. The “Barnyardgrass plant response rating” value in the assay with barnyardgrass [2] (16 g ai/ha, scale 0 to 100 (0 no effect, 100 complete control)) is reported as 20; in the assay with barnyardgrass [2] (62 g ai/ha, scale 0 (no effect) to 100 (complete control)), 100; in the assay on barnyardgrass [2] (125 g ai/ha, scale 0 (no effect) to 100 (complete control)) it was 100.
